One experiment concerns the target T1, human TLR7 (Homo sapiens, UniProt Q9NYK1).
T1 construct: host or cells: HEK-Blue cells
T1 sequence (Q9NYK1 27-1049): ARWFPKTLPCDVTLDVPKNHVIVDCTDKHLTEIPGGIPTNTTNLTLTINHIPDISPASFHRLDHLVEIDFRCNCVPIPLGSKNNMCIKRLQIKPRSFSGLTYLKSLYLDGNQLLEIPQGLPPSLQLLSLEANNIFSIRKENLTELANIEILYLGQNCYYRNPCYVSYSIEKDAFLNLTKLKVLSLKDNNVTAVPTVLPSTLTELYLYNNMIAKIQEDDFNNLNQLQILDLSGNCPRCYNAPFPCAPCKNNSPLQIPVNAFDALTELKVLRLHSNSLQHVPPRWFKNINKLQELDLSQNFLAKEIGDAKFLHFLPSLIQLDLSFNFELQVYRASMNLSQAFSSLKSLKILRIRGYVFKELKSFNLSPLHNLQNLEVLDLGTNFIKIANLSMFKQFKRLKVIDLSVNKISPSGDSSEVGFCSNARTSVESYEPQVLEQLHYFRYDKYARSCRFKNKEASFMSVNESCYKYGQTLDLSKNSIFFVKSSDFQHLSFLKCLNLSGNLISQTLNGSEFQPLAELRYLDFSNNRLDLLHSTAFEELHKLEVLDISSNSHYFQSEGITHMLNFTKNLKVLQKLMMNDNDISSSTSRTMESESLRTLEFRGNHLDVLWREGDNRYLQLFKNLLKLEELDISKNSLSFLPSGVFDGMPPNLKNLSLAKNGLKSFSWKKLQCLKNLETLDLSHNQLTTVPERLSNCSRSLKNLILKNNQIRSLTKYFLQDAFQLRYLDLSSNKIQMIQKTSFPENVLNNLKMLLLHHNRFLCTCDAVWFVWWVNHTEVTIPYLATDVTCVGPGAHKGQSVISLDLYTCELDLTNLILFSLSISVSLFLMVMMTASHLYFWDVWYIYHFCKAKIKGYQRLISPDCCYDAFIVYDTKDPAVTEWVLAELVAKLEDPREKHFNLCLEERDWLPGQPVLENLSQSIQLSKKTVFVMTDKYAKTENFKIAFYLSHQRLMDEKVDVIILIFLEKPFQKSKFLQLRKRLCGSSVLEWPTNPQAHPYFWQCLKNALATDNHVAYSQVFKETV
The experiment can be described thus: TLR7 inhibition reporter assay (HEK-Blue cells, SEAP reporter, gardiquimod stimulation). The class given is cell-based. The settings on record: HEK-Blue cells overexpressing human TLR7, gardiquimod 7.5 μM. The essentials:
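In this cell reporter format, test compounds at 0.05 nM-50 μM final incubate 22 h with seeded cells (TLR7 15000, TLR8 20,000 per well). SEAP read-out by HEK-Blue Detection medium yields % inhibition relative to agonist/DMSO and known-inhibitor wells.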

The target of a further experiment is T2, human TLR9 (Homo sapiens, UniProt Q9NR96).
T2 construct: host or cells: HEK-Blue cells
T2 sequence (Q9NR96 26-1032): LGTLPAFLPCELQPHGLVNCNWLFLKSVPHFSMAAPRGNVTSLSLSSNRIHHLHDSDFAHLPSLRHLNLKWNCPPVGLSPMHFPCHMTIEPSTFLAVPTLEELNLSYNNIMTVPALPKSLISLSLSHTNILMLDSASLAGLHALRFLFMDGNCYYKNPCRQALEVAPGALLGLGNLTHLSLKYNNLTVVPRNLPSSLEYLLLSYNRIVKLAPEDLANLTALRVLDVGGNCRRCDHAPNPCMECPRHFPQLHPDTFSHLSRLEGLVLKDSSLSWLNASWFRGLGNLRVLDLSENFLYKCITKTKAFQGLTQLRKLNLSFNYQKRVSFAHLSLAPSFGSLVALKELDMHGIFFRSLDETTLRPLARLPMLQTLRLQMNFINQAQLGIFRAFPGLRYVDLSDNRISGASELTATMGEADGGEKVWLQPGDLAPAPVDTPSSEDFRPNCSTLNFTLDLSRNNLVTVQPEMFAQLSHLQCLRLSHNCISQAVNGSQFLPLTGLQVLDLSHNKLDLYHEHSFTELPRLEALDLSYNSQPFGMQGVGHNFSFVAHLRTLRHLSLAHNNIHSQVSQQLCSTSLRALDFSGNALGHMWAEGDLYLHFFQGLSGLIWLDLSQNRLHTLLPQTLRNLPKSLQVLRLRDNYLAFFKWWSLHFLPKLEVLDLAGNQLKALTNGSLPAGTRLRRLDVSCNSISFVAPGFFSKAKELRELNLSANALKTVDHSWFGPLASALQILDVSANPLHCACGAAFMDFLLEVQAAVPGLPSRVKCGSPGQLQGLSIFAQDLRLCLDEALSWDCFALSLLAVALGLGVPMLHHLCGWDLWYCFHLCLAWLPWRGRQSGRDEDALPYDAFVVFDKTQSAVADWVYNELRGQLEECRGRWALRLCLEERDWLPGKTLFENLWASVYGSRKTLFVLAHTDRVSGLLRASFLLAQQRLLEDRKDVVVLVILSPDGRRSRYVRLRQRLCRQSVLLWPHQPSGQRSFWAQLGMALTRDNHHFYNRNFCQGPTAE
The experiment in a line: TLR9 inhibition reporter assay (HEK-Blue cells, SEAP reporter, ODN2006 stimulation). Format: cell-based. The conditions noted are these: HEK-Blue cells overexpressing human TLR9, ODN2006 5 nM. The method, boiled down:
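Dose–response from 0.05 nM to 50 μM was run in HEK-Blue human TLR7, TLR8 and TLR9 reporter cells. After 30 min at room temperature with compound, ligand was added (TLR7 gardiquimod 7.5 μM; TLR8 R848 15.9 μM; TLR9 ODN2006 5 nM) and SEAP measured next day, at 22 h.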

In the case of `CCc1c(-c2ccc(OC)c(OC)c2)[nH]c2ccc(C3CCN(C(=O)CNC4CCC(N(C)C)CC4)CC3)cc12` (stereo not shown) [Example 162, 1-(4-(2-(3,4-dimethoxyphenyl)-3-ethyl-1H-indol-5-yl)piperidin-1-yl)-2-((4-(dimethylamino)cyclohexyl)amino)ethan-1-one], the IC50 amounted to 88 nM on human TLR7 and 402 nM against human TLR9.

For `CCc1c(-c2ccc(OC)c(OC)c2)[nH]c2cc(OC)c(C3CCN(C4CCN(C(C)C)CC4)CC3)cc12` [Example 192, 2-(3,4-dimethoxyphenyl)-3-ethyl-5-(1′-isopropyl-[1,4′-bipiperidin]-4-yl)-6-methoxy-1H-indole], the IC50 against human TLR7 is 171 nM; at human TLR9, 260 nM.

With `COc1ccc(-c2[nH]c3ccc(C4CCN(C5CCN(C6CCCC6)CC5)CC4)cc3c2C(C)C)cc1OC` [Example 202, 5-(1′-cyclopentyl-[1,4′-bipiperidin]-4-yl)-2-(3,4-dimethoxyphenyl)-3-isopropyl-1H-indole], the results for the concentration for half-maximal inhibition (IC50) against human TLR7 and against human TLR9 were 155 nM and 340 nM, respectively.

For `CCc1c(-c2ccc(OC)c(OC)c2)[nH]c2ccc(C3CCN(C4CCN(Cc5cc6ccccc6n5C)CC4)CC3)cc12` [Example 137, 2-(3,4-dimethoxyphenyl)-3-ethyl-5-(1′-((1-methyl-1H-indol-2-yl)methyl)-[1,4′-bipiperidin]-4-yl)-1H-indole], the IC50 is 4690 nM at human TLR7 and 2600 nM at human TLR9.

Regarding `CCc1c(-c2ccc(OC)c(OC)c2)[nH]c2c(F)cc(C3CCN(C4CCN(CC(C)C)CC4)CC3)cc12` [Example 190, 2-(3,4-dimethoxyphenyl)-3-ethyl-7-fluoro-5-(1′-isobutyl-[1,4′-bipiperidin]-4-yl)-1H-indole], the IC50 against human TLR7 was determined as 588 nM; on human TLR9, 280 nM.

`CCc1c(-c2ccc(OC)c(OC)c2)[nH]c2ccc(C3CCN(C4CCN(Cc5cc(C)n[nH]5)CC4)CC3)cc12` [Example 131, 2-(3,4-dimethoxyphenyl)-3-ethyl-5-(1′-((3-methyl-1H-pyrazol-5-yl)methyl)-[1,4′-bipiperidin]-4-yl)-1H-indole]: the half-maximal inhibitory concentration (IC50) against human TLR7 is 371 nM; against human TLR9 it was 447 nM.

Consider `CCc1c(-c2ccc(OC)c(OC)c2)[nH]c2ccc(C3CCN(C4CCN(Cc5cc(C)nn5C)CC4)CC3)cc12` [Example 132, 2-(3,4-dimethoxyphenyl)-5-(1′-((1,3-dimethyl-1H-pyrazol-5-yl)methyl)-[1,4′-bipiperidin]-4-yl)-3-ethyl-1H-indole], for which the IC50 was no less than 50000 nM at human TLR7 and 695 nM against human TLR9.

`COc1ccc(-c2[nH]c3ccc(C4CCN(C(=O)CNC56CC7CC(CC(C7)C5)C6)CC4)cc3c2C(C)C)cc1OC` [Example 217, 2-(((3s,5s,7s)-adamantan-1-yl)amino)-1-(4-(2-(3,4-dimethoxyphenyl)-3-isopropyl-1H-indol-5-yl)piperidin-1-yl)ethan-1-one]: the half-maximal inhibitory concentration (IC50) on human TLR7 was determined as 409 nM; against human TLR9 it was 2130 nM.

For `CCc1c(-c2ccc(OC)c(OC)c2)[nH]c2ccc(C3CCN(C4CCN(CC)CC4)CC3)cc12` [Example 149, 2-(3,4-dimethoxyphenyl)-3-ethyl-5-(1′-ethyl-[1,4′-bipiperidin]-4-yl)-1H-indole], the concentration for half-maximal inhibition (IC50) at human TLR7 was 345 nM; at human TLR9 it was 152 nM.

`COc1ccc(-c2[nH]c3ccc(C4CCN(C5CCN(Cc6ccccc6)CC5)CC4)cc3c2C)cc1OC` [Example 9, 5-(1′-benzyl-[1,4′-bipiperidin]-4-yl)-2-(3,4-dimethoxyphenyl)-3-methyl-1H-indole]: the half-maximal inhibitory concentration (IC50) against human TLR7 was 1550 nM; on human TLR9, 360 nM.

For the molecule `CCc1c(-c2ccc(OC)c(OC)c2)[nH]c2ccc(C3CCN(CC(C)C(F)(F)F)CC3)cc12` (stereo not shown) [Example 180, 2-(3,4-dimethoxyphenyl)-3-ethyl-5-(1-(3,3,3-trifluoro-2-methylpropyl)piperidin-4-yl)-1H-indole], the IC50 against human TLR7 and against human TLR9 was no less than 50000 nM throughout.

The record behind these values is patent US11180474B2 (BRISTOL-MYERS SQUIBB COMPANY, priority 2016, dated 2021).
